In patent US20170232031A1, “Inhibitors of Zika Virus” (Riboscience LLC, priority 2016, published 2017):
pEC50, pIC50: −log10 of the molar value. “Also recorded” adds a separate entry of the source. Read-outs that look alike come from different tables or passages of the source.

Legend:
ZIK-V-RLuc = experiment: Renilla Luciferase (Rluc) assay, % infection of ZIK-V-RLuc; assay type: cell-based; details: Zika virus, 72 h, read-out: IC50 Zika
Procedure: FIG. 1. Graph of % infection of ZIK-V-RLuc at 72 h.p.i. vs. IC50 concentration (μM) of compound I-36.
FIG. 2. Graph of % infection of ZIK-V-RLuc at 72 h.p.i. vs. IC50 concentration (μM) of compound I-37.
Single Epimers I-36 and I-37, of I-1 were tested in the Rluc assay at 72 h.p.i. for % inhibition vs. concentration of compound (FIGS. 1-2): […]

HCV replication = details: humans; cited from earlier work
HepG2 cells = experiment: Mitochondrial toxicity in HepG2 cells (COX-I / SDH-A ratio); details: up to 11-day incubation
Text: Mean values shown as individual data points; standard deviations as error bars (FIG. 4).

[1] = 13 week, GLP; cited from earlier work
[2] = 13 week, GLP; cited from earlier work; remark: listed apart in the source
[3] = human, in vivo; cited from earlier work
[4] = assay type: in vitro ADME, human
Procedure: The formation of 4AUTP triphosphate is determined in human cells (Huh-7 cells, PBMC), and representative mouse, rat, dog and cynomolgus monkey cells. The intracellular triphosphate concentration is determined using LC-MS/MS. In human cells, the time and concentration dependent formation of 4AUTP triphosphate is determined, as well as the half-life after removal of all extracellular prodrug by exchange of cell culture medium. Analysis of intracellular nucleoside phosphates is conducted using well-established methods.

[5] = test system: Chikungunya replicon (CHIKV strain LR2006 OPY-1, GenBank EU224270); experiment: Chikungunya replicon antiviral activity; assay type: cell-based; details: Chikungunya virus
Text: (§1) FIG. 3. Antiviral activity of I-3 against ZIKV and CHIKV replication and cell viability determined in Huh-7 cell derived CHIKV replicon cells by intracellular ATP quantification (CellTiter-Glo).
(§2) Antiviral activity of I-3 (prodrug of 4AU) against ZIKV and CHIKV replication and cell viability determined in Huh-7 cell derived CHIKV replicon cells by intracellular ATP quantification (CellTiter-Glo).

[6] = Cytotoxicity (CC50) alongside HCV GT1b replicon assay; details: HCV GT1b (Con1) replicon cells
[7] = test system: HCV replicon of genotype 1b (Con1); experiment: HCV replicon genotype 1b antiviral activity; assay type: cell-based; details: Hepatitis C virus; replicon genotype 1b (Con1); read-out: HCV GT1b EC50
in vitro = assay type: cell-based; details: human; Huh-7 cell derived CHIKV replicon cells
Text: as §1, §2

[8] = test system: ZIKV strain MR766 (Genbank LC002520); experiment: Antiviral activity against ZIKV replication in cells; assay type: cell-based, Zika virus
Procedure: (§3) The human hepatoma cell line Huh-7, are cultured in DMEM without phenol-red (Cellgro Mediatech, Cat #10-013-CV containing 4.5 g/l glucose, L-glutamine & sodium pyruvate). The medium is further supplemented with 10% (v/v) FBS (ATLAS Cat # F-0500-A, lot#850114A) and 1% (vlv) penicillin/streptomycin (Cellgro Mediatech #30-022-CI). Cells are maintained at 37° C. in a humidified 5% CO2 atmosphere. Zika virus representative strain titers are measured on BHK-21 cells, using a standard plaque assay procedure. For the determination of EC50 of nucleoside in the antiviral assay, Huh-7 cells are plated in white 96-well plates in MEM media supplemented with 10% FBS and 1% penicillin/streptomycin. After incubation for 24 h, the cells are infected at a multiplicity of infection (MOI) of 0.5 for 2 h at 37° C. Ten three-fold dilutions of compounds are prepared in the same media supplemented with 1% DMSO. After the 2 h adsorption phase, the virus is aspirated off and diluted compound is added to four wells each. Huh-7 cells are plated as described above and exposed to the same concentration range of compounds. Untreated cells are carried along as a control. After a 3-day incubation at 37° C., the cell viability is determined using Cell-titer Glo™ reagent (Promega, Madison, Wis.) that is added to each well and incubated for 5 min. Plates are analyzed using a Thermo Luminoskan plate reader (Waltham, Mass.).

[9] = Cell viability (CC50) alongside ZIKV antiviral assay, Cell-titer Glo; assay type: cell-based; details: human, Huh-7 cells
Procedure: as §3

human RNA polymerase I = molecular target: T1, human RNA polymerase I (Homo sapiens, UniProt O95602+Q9H9Y6); experiment: RNA polymerase I specific reporter gene assay in HeLa cells; assay type: cell-based; details: 10 or 100 μM (highest soluble concentrations)
T1 construct: endogenous in cells; host or cells: HeLa

human RNA polymerase II = molecular target: T2, human RNA polymerase II (Homo sapiens, UniProt P24928+P30876); experiment: RNA polymerase II specific reporter gene assay in HeLa cells; assay type: cell-based; details: 10 or 100 μM (highest soluble concentrations)
T2 construct: endogenous in cells; host or cells: HeLa

human RNA polymerase III = molecular target: T3, human RNA polymerase III (Homo sapiens, UniProt O14802+Q9NW08); experiment: RNA polymerase III specific reporter gene assay in HeLa cells; assay type: cell-based; details: 10 or 100 μM (highest soluble concentrations)
T3 construct: endogenous in cells; host or cells: HeLa

[10] = molecular target: T4, mitochondrial DNA polymerase pol γ (Homo sapiens, UniProt P54098); experiment: Inhibition of mitochondrial DNA polymerase pol γ; assay type: biochemical; details: comparison nucleoside triphosphates; read-out: DNA pol γ mean IC50
T4 sequence (P54098 1-1239): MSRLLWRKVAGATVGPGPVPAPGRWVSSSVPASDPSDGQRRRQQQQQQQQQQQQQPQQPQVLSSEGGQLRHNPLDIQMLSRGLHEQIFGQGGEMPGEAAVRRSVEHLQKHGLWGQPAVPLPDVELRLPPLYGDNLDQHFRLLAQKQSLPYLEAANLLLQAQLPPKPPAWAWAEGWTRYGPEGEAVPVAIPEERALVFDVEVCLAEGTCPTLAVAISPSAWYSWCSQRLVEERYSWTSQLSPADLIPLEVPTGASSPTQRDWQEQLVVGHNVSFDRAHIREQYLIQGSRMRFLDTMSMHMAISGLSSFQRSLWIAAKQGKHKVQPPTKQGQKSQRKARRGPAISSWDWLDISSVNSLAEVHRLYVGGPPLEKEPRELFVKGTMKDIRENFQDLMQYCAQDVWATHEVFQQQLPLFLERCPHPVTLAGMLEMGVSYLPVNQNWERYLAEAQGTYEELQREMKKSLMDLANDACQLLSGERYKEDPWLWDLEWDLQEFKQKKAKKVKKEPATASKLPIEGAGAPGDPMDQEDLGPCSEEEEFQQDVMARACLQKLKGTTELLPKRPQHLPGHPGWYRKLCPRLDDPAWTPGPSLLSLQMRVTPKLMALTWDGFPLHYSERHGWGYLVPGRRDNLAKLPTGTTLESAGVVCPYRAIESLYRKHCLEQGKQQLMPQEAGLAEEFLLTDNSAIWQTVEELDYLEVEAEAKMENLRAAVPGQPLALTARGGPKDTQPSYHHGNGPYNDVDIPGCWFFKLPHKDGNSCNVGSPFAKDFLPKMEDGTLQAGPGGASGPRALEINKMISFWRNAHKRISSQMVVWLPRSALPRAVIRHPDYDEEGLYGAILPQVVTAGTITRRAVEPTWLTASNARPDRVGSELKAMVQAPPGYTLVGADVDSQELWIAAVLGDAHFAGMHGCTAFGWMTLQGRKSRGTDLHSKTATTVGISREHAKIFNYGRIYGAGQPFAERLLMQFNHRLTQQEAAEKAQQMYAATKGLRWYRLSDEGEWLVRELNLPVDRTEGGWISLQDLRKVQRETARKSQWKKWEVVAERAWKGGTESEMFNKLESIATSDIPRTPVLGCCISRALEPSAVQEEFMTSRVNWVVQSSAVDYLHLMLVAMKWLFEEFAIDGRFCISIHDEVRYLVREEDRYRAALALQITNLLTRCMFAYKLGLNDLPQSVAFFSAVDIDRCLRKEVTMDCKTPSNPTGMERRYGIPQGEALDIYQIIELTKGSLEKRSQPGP

C[C@H](N[P@](=O)(OC[C@@]1(N=[N+]=[N-])O[C@@H](n2ccc(=O)[nH]c2=O)[C@H](O)[C@@H]1O)Oc1cccc2ccccc12)C(=O)OCc1ccccc1 [Compound I-37, benzyl ((S)-(((2R,3S,4R,5R)-2-azido-5-(2,4-dioxo-3,4-dihydropyrimidin-1(2H)-yl)-3,4-dihydroxytetrahydrofuran-2-yl)methoxy)(naphthalen-1-yloxy)phosphoryl)-L-alaninate]
pIC50 (ZIK-V-RLuc): 5.78

[N-]=[N+]=N[C@]1(CO)O[C@@H](n2ccc(=O)[nH]c2=O)[C@H](O)[C@@H]1O [Compound 4AU, 4′-azidouridine]
antiviral activity against HCV replication in Phase 1 study (HCV replication): significant antiviral activity
mitochondrial toxicity (HepG2 cells): No mitochondrial toxicity; also recorded: lack of mitochondrial toxicity
safety in chronic toxicity study, rats [1]: safety of 4AU has already been demonstrated
safety in chronic toxicity study, monkeys [2]: safety of 4AU has already been demonstrated
safety in Phase 1 clinical study [3]: safety of 4AU has already been demonstrated
conversion to 4AU-triphosphate (4AUTP) [4]: not efficiently converted
pEC50 [5]: < 4.00
CC50 [6]: > 1000 µM
pEC50 [7]: 3.66
CC50 (in vitro): > 1000 µM

CCOC(=O)[C@H](C)NP(=O)(OC[C@@]1(N=[N+]=[N-])O[C@@H](n2ccc(=O)[nH]c2=O)[C@H](O)[C@@H]1O)Oc1cccc2ccccc12 (stereo partly drawn) [Compound I-3, ethyl ((((2R,3S,4R,5R)-2-azido-5-(2,4-dioxo-3,4-dihydropyrimidin-1(2H)-yl)-3,4-dihydroxytetrahydrofuran-2-yl)methoxy)(naphthalen-1-yloxy)phosphoryl)-L-alaninate]
pEC50 ([8]; Zika virus, ZIKV strain MR766, human Huh-7 or mouse MEF cells): 6.32
antiviral inhibition potency (EC50), in words ([8]; summary statement): submicromolar
CC50 at 3 day ([9]; cytotoxicity column of the ZIKV assay, read-out: ZIKV CC50): > 100 µM
CC50 at 3 day ([9]; summary statement, cytotoxicity in cell culture, read-out: Huh-7 cell CC50): > 100 µM
inhibition of human RNA polymerase I activity (reporter gene) (human RNA polymerase I): did not inhibit
inhibition of human RNA polymerase II activity (reporter gene) (human RNA polymerase II): did not inhibit
pEC50 [5]: 5.39
CC50 [6]: > 100 µM
pEC50 [7]: 6.40
inhibition of human RNA polymerase III activity (reporter gene) (human RNA polymerase III): did not inhibit
CC50 (in vitro): > 100 µM

Cc1cn([C@H]2C[C@H](N=[N+]=[N-])[C@@H](COP(=O)(O)OP(=O)(O)OP(=O)(O)O)O2)c(=O)[nH]c1=O [AZT triphosphate]
pIC50 [10]: 5.61

Nc1ccn([C@@H]2CS[C@H](COP(=O)(O)OP(=O)(O)OP(=O)(O)O)O2)c(=O)n1 [lamivudine triphosphate]
pIC50 [10]: 3.83

C[C@H](N[P@@](=O)(OC[C@@]1(N=[N+]=[N-])O[C@@H](n2ccc(=O)[nH]c2=O)[C@H](O)[C@@H]1O)Oc1cccc2ccccc12)C(=O)OCc1ccccc1 [Compound I-36, benzyl ((R)-(((2R,3S,4R,5R)-2-azido-5-(2,4-dioxo-3,4-dihydropyrimidin-1(2H)-yl)-3,4-dihydroxytetrahydrofuran-2-yl)methoxy)(naphthalen-1-yloxy)phosphoryl)-L-alaninate]
pIC50 (ZIK-V-RLuc): 5.96
